What was measured:
[1] = target: T1, mGluR4 (Homo sapiens, UniProt Q14833); assay: Fluorescent Plate Imaging Reader (FLIPR) Assay for mGluR4 Potentiators; format: cell-based; set-up: expressed in transfected cells; conditions: for Emax: maximal activity relative to response with saturating concentration (10 uM) of agonist L-AP4, read-out: mGlu4 FLIPR % Max Efficacy; for EC50: potentiator response with EC10 concentration of L-AP4 (30 nM), inflection point of the curve, read-out: mGluR4 FLIPR Potency
T1 sequence (Q14833 33-912): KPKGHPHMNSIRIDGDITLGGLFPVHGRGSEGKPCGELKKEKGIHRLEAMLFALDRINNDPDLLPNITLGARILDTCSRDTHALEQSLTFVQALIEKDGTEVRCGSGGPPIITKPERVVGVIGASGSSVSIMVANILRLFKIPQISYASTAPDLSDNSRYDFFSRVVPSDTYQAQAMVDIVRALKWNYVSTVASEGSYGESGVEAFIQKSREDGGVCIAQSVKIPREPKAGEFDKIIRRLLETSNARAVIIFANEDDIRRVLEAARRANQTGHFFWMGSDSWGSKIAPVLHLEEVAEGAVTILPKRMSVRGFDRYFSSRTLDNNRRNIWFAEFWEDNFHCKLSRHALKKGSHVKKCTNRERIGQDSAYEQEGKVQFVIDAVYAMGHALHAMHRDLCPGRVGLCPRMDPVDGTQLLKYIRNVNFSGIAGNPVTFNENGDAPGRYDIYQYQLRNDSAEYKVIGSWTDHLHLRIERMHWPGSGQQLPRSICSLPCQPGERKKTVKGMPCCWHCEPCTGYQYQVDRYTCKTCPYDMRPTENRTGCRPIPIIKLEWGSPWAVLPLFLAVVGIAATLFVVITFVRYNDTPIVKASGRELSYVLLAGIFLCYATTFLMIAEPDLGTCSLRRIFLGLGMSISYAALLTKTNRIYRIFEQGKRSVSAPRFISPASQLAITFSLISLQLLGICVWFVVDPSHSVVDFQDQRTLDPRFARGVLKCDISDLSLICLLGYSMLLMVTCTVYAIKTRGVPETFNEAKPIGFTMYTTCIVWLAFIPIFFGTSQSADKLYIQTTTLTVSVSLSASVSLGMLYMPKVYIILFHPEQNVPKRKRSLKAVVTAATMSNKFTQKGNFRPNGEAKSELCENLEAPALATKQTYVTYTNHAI
Description: Cells are grown in Corning T162 cm^2 flasks in DMEM growth media at 37° C. and 5% CO2. Growth media contains: Gibco DMEM supplemented with 10% defined FBS, 1% GlutaMax −1, 1% sodium pyruvate, 1% NEAA, 1% Pen/Strep, 250 ug/ml zeocin, 25 mM HEPES, 0.1% 2-Mercaptoethanol, 600 ug/ml Hygromycin B, 7.5 ug/ml blasticidin, and 5 ug/ml puromycin.
The day prior to the experiment the cells were plated in growth medium (minus glutamine) at 50K cells/well into Becton-Dickinson 384-well PDL-coated plates using a Labsystems Multidrop (0.1 ml/well). The cells are grown overnight at 37° C. and 6% CO2.
The following day, the cells are washed with Assay Buffer at 37° C. using a Skatron EMBLA cell washer (3×100 μl, aspiration 3 mm from bottom will leave 30 μl of buffer in each well). Assay buffer is Hanks balanced salt solution with 20 mM HEPES, 2.5 mM probenecid and 0.1% BSA.
Fluorescent dye, 30 μl of the diluted Fluo-4-AM, is added to each well of the plate. The Fluo-4-AM solution is added to achieve a final concentration in the assay of 2 uM Fluo-4-AM, 0.02% pluronic acid and 1% FBS. The assay plates are placed back into the 6% CO2 incubator and incubated at 37° C. for 60 min. The 384-well plates are washed with Assay Buffer at 37° C. on using a cell washer (3×100 μl, aspiration 3 mm from bottom, will leave 30 μl of buffer in each well). The experimental run is initiated and after 30 sec a dose of test compound is applied. The fluorescent response elicited by test compound is monitored for 5 min, any positive response detected at this stage is attributed to agonist properties of the test compound. At this point an EC10 concentration of the mGluR4 agonist L-AP4 ((S)-2-amino-4-phosphonobutanoate) (final concentration 30 nM) is added and the fluorescent response is monitored for an additional 3 minutes, any positive response detected at this stage is attributed to potentiator properties of the test compound.
Controls for the assay include a no compound control, a positive control which is a saturating concentration, 10 uM, of the agonist L-AP4. A 10 point dose response, with either 2-fold or 3-fold dilution steps, is performed and curve fitting algorithms, suitable for a sigmoidal dose response relationship, are used to fit the data. The inflection point of the curve provides a measure of compound potency.
A comparison of the maximal level of activity achieved for a test compound, relative to the response achieved with a saturating concentration of the agonist L-AP4 provides a measure of compound efficacy.

[2] = target: T1, mGluR4; assay: mGluR4 Binding Assay; set-up: expressed in transfected cells; host or cells: CHO cells; conditions: membranes from CHO cells expressing human mGluR4; 20 uM L-AP4; 7 nM radiotracer [3H]-N-(4-{[(2-Chlorophenyl)amino]sulfonyl}phenyl)pyridine-2-carboxamide
Description: Membranes were prepared from CHO cells expressing the human mGluR4 receptor. Cells were harvested using trypsin and then washed in assay buffer, assay buffer contains 50 mM HEPES, 1 mM EDTA and protease inhibitors (Boehringer Mannheim catalog #1 836 170). Harvested cells were pelleted by centrifugation and stored at −80° C. for a minimum of 12 hours. Cells were resuspended in assay buffer and lysed by a polytron, a low speed spin, 2000×g for 10 min, was used to recover unbroken cells for additional treatment using the polytron. The cleared supernatant from the low speed spins was subjected to a high speed spin, 96,000×g for 1 hour. The membrane pellet from the high speed spin was resuspended in assay buffer and used in the mGluR4 binding assay.
The binding assay follows a standard filtration binding paradigm. The binding buffer consists of 20 mM HEPES, 100 mM NaCl and 3 mM MgCl2, the pH of the buffer is 7.4. The assay is performed in a 96-well format with each well containing test compound, 25 to 50 ug of membrane protein, 20 uM L-AP4, and 7 nM radiotracer, [^3H]—N-(4-{[(2-Chlorophenyl)amino]sulfonyl}phenyl)pyridine-2-carboxamide, which is disclosed in commonly owned U.S. patent application docket no.
The binding reaction is incubated at room temperature for 1 hour, and then is passed through GF/B filter that was presoaked with 0.5% PEI. The cell membranes are collected on the filter and then washed five times with ˜5 ml ice cold binding buffer that contains 0.01% BSA. The washed filter plate is dried for 30 minutes at 37° C., scintillation fluid is added, and the amount of filter bound radioactivity is determined using a TopCount instrument. […] To determine the level of non-specific binding for the radiotracer [^3H]—N-(4-{[(2-Chlorophenyl)amino]sulfonyl}phenyl)pyridine-2-carboxamide, 5 uM of unlabeled [^3H]—N-(4-{[(2-Chlorophenyl)amino]sulfonyl}phenyl)pyridine-2-carboxamide is added to determine the level of non-specific binding. […]

Emax [1] | EC50 [1] | IC50 [2] | Compound
125% | 43.6 nM | – | Cc1cccc2c1C(=O)N(c1ccc(NC(=O)c3ccccn3)cc1Cl)C2=O [Example 13, N-[3-chloro-4-(4-methyl-1,3-dioxo-1,3-dihydro-2H-isoindol-2-yl)phenyl]pyridine-2-carboxamide]
110% | 50.4 nM | – | O=C(Nc1ccc(N2C(=O)c3cccc(F)c3C2=O)c(Cl)c1)c1ccccn1 [Example 10, N-[3-chloro-4-(4-fluoro-1,3-dioxo-1,3-dihydro-2H-isoindol-2-yl)phenyl]pyridine-2-carboxamide]
109% | 101 nM | 12 nM | Cc1cccc2c1C(=O)N(c1ccc(NC(=O)c3ccccn3)cc1Br)C2=O [Example 29, N-[3-bromo-4-(4-methyl-1,3-dioxo-1,3-dihydro-2H-isoindol-2-yl)phenyl]pyridine-2-carboxamide]
52% | 341 nM | 712 nM | O=C(Nc1ccc(N2C(=O)c3ccccc3C2=O)cc1)c1ccccn1 [Example 1, N-[4-(1,3-dioxo-1,3-dihydro-2H-isoindol-2-yl)phenyl]pyridine-2-carboxamide]
104% | 390 nM | 1720 nM | Cc1cc(NC(=O)c2ccccn2)ccc1N1C(=O)c2ccccc2C1=O [Example 3, N-[4-(1,3-dioxo-1,3-dihydro-2H-isoindol-2-yl)-3-methylphenyl]pyridine-2-carboxamide]

— US20110318266A1, “PHTHALIMIDE DERIVATIVE METABOTROPIC GLUTAMATE R4 LIGANDS” (priority 2008, published 2011)
